Read-outs that look alike come from different tables or passages of the source.
Key:
Type in all cases: cell-based
[1] = tested on: MEF (C57BL/6); assay: MTT cell viability assay, MEF (C57BL/6); settings: Mus musculus
Description: (§1) Cells were then treated with compound at various concentrations in 0.2 mL media. After the 72-hour incubation period, cells were washed in PBS (3×100 μL), and 10 μL MTT reagent was added with 100 μL fresh media. Cells were then incubated for 4 hr in a humidified chamber at 37° C. with 5% CO2. Insoluble formazan crystals were solubilized by addition of 0.1 mL detergent solution (4 hr at room temp., dark). Resulting colored solutions were then quantified at an absorbance of 570 nm.

[2] = tested on: MCF-7; assay: MTT cell viability assay, MCF-7; settings: Homo sapiens, read-out: IC50/μM MCF-7
Description: as §1

[3] = tested on: MDA-MB-231; assay: MTT cell viability assay, MDA-MB-231; settings: Homo sapiens
Description: as §1

[4] = 72 h, read-out: IC50/μM MEF (C57BL/6), MTT, 72-hour incubation
[5] = MDA-MB-231, 72 h, 72-hour incubation
[6] = MTT, 72-hour incubation, read-out: IC50/μM MEF (C57BL/6)
[7] = MCF7, 72 h, MTT, 72-hour incubation

Row | IC50 ([2]; MCF7, MTT, 72-hour incubation) [µM] | IC50 ([3]; MDA-MB-231, 72-hour incubation) [µM] | Compound | IC50 [1, 4] [µM] | IC50 [3, 5] [µM] | IC50 [1, 6] [µM] | IC50 ([2]; MCF7, 72 h) [µM] | IC50 [2, 7] [µM]
1 | 0.14 ± 0.01 | 0.15 ± 0.01 | CCn1c(=O)/c(=C2\Sc3cc(OC)ccc3N2C)s/c1=C\c1scc[n+]1C(C)c1ccccc1 (stereo not drawn) [JG-322] | – | – | 1.7 ± 0.1 | – | –
2 | 1.3 ± 0.1 | 2.3 ± 0.1 | CCn1c(=O)/c(=C2\Sc3cc(C#N)ccc3N2C)s/c1=C\c1scc[n+]1Cc1ccccc1 [JG-360] | – | – | 2.3 ± 0.1 | – | –
3 | 0.24 ± 0.02 | 0.14 ± 0.01 | CCn1c(=O)/c(=C2\Sc3cc(OC)ccc3N2C)s/c1=C\c1scc[n+]1CCc1ccccc1C [JG-398] | – | – | 1.1 ± 0.1 | – | –
4 | 0.37 ± 0.04 | 0.19 ± 0.02 | CCn1c(=O)/c(=C2\Sc3cc(Cl)ccc3N2C)s/c1=C\c1scc[n+]1[C@H](C)c1ccccc1 [JG-339] | – | – | 1.5 ± 0.08 | – | –
5 | 1.58 ± 0.18 | 1.8 ± 0.3 | CCn1c(=O)/c(=C2\Sc3cc(Cl)ccc3N2C)s/c1=C\c1scc[n+]1Cc1ccccc1OC(C)=O [JG-247] | – | – | 6.1 ± 0.3 | – | –
6 | – | – | CCn1c(=O)/c(=C2\Sc3cc(C(C)C)ccc3N2C)s/c1=C\c1scc[n+]1Cc1ccccc1OC(F)(F)F [JG-325] | 0.48 ± 0.02 | 0.21 ± 0.01 | – | 0.09 ± 0.005 | –
7 | 0.28 ± 0.02 | 0.21 ± 0.01 | CCn1c(=O)/c(=C2\Sc3cc(SC)ccc3N2C)s/c1=C\c1scc[n+]1Cc1c(C)cccc1C [JG-355] | – | – | 1.5 ± 0.1 | – | –
8 | 0.6 ± 0.06 | 0.16 ± 0.02 | CN1/C(=c2\s/c(=C\c3scc[n+]3Cc3ccccc3)n(C)c2=O)Sc2cc(Cl)ccc21 [JG-281] | – | – | 5.7 ± 0.3 | – | –
9 | – | – | CCn1c(=O)/c(=C2\Sc3ccc(OC)cc3N2C)s/c1=C\c1scc[n+]1Cc1ccccc1 [JG-376] | – | 0.36 ± 0.05 | 1 ± 0.1 | – | 0.37 ± 0.02
10 | 1.08 ± 0.14 | 1.93 ± 0.27 | CCn1c(=O)/c(=C2\Sc3cc(F)ccc3N2C)s/c1=C\c1scc[n+]1Cc1ccccc1CO [JG-330] | – | – | > 10 | – | –
11 | 0.27 ± 0.03 | 0.3 ± 0.03 | CCn1c(=O)/c(=C2\Sc3cc(F)ccc3N2C)s/c1=C\c1scc[n+]1Cc1nc(C)sc1C [JG-275] | – | – | 1.6 ± 0.1 | – | –
12 | 0.21 ± 0.01 | 0.25 ± 0.01 | CCn1c(=O)/c(=C2\Sc3cc(SC)ccc3N2C)s/c1=C\c1scc[n+]1Cc1cc(C)sc1C [JG-359] | – | – | 1.6 ± 0.1 | – | –
13 | 0.35 ± 0.08 | 0.14 ± 0.02 | CCn1c(=O)/c(=C2\Sc3cc(Br)ccc3N2C)s/c1=C\c1scc[n+]1C(C)c1ccccc1 (stereo not drawn) [JG-317] | – | – | 2.7 ± 0.1 | – | –
14 | 0.16 ± 0.01 | 0.21 ± 0.02 | CCn1c(=O)/c(=C2\Sc3cc(Br)ccc3N2C)s/c1=C\c1scc[n+]1Cc1ccccc1C [JG-290] | – | – | 1.7 ± 0.1 | – | –
15 | – | – | CCn1c(=O)/c(=C2\Sc3cc(OC)ccc3N2C)s/c1=C\c1scc[n+]1Cc1ccccc1Cl [JG-301] | 0.66 ± 0.01 | 0.033 ± 0.005 | – | – | 0.048 ± 0.003
16 | 0.79 ± 0.1 | 0.3 ± 0.03 | CCn1c(=O)/c(=C2\Sc3ccc(OC)cc3N2C)s/c1=C\c1scc[n+]1Cc1ccccc1OC [JG-404] | – | – | 1.3 ± 0.1 | – | –
17 | 1.7 ± 0.3 | 0.2 ± 0.03 | CCn1c(=O)/c(=C2\Sc3cc(OC)ccc3N2C)s/c1=C\c1scc[n+]1CCc1ccc(Cl)cc1 [JG-396] | – | – | 4 ± 0.2 | – | –
18 | 0.17 ± 0.02 | 0.15 ± 0.02 | CCn1c(=O)/c(=C2\Sc3cc(C(C)C)ccc3N2C)s/c1=C\c1scc[n+]1Cc1ccccc1C [JG-324] | – | – | 1.9 ± 0.1 | – | –
19 | 0.1 ± 0.01 | 0.3 ± 0.05 | CCc1ccc2c(c1)S/C(=c1/s/c(=C\c3scc[n+]3C(C)c3ccccc3)n(CC)c1=O)N2C (stereo not drawn) [JG-320] | – | – | 1.3 ± 0.04 | – | –
20 | 0.18 ± 0.01 | 0.26 ± 0.04 | CCn1c(=O)/c(=C2\Sc3cc(Cl)ccc3N2C)s/c1=C\c1scc[n+]1CCc1ccccc1 [JG-269] | – | – | 2.2 ± 0.1 | – | –

Row | Compound | IC50 ([2]; MCF7, MTT, 72-hour incubation) [µM] | IC50 ([3]; MDA-MB-231, 72-hour incubation) [µM] | IC50 [1, 4] [µM] | IC50 [3, 5] [µM] | IC50 [1, 6] [µM] | IC50 ([2]; MCF7, 72 h) [µM] | IC50 [2, 7] [µM]
21 | CCn1c(=O)/c(=C2\Sc3cc(Cl)ccc3N2C)s/c1=C\c1scc[n+]1Cc1cnc(Cl)s1 [JG-259] | > 5 | – | 8.9 ± 0.8 | 2.3 ± 0.3 | – | – | –
22 | CCn1c(=O)/c(=C2\Sc3cc(Cl)ccc3N2C)s/c1=C\c1scc[n+]1Cc1ccc(Cl)cc1 [JG-256] | 0.72 ± 0.06 | 1.1 ± 0.1 | – | – | 2.2 ± 0.1 | – | –
23 | CCn1c(=O)/c(=C2\Sc3cc(Cl)ccc3N2C)s/c1=C\c1scc[n+]1Cc1c(C)noc1C [JG-267] | > 5 | 10 ± 2 | 7.6 ± 0.3 | – | – | – | –
24 | CCn1c(=O)/c(=C2\Sc3cc(Cl)ccc3N2C)s/c1=C\c1scc[n+]1Cc1ccnc(Cl)c1 [JG-257] | > 5 | – | – | 7.2 ± 0.8 | 1.1 ± 0.1 | – | –
25 | C=CCn1c(=O)/c(=C2\Sc3cc(Cl)ccc3N2C)s/c1=C\c1scc[n+]1Cc1ccccc1 [JG-280] | – | 0.1 ± 0.01 | 2.4 ± 0.1 | – | – | – | 0.17 ± 0.02
